In brackets after ≈: the same amount, converted by molar mass.
What was measured:
[1] = tested on: E. histolytica trophozoites (virulent HM-1 strain); assay: microbe, parasite or virus in culture; conditions: Entamoeba histolytica, 48 h, read-out: IC50 HM-1, 48 h, flow cytometry
[2] = Paraclinical analysis (serum biochemistry, hematic biometry) in ALA hamsters; format: in vivo, Mesocricetus auratus
Procedure: Serum was obtained by centrifugation at 3500 rpm and frozen at −70 °C until analysis. Hematic biometry was performed in a hematology autoanalyzer system (BC-2300, Mindray; Shenzhen, China), and biochemical parameters were made on an automatic medical system (Prestige 24i, Tokyo Boeki; Kanagawa, Japan).

[3] = tested on: E. histolytica trophozoites (virulent HM-1 strain)
CHO-K1 cells = assay: MTT cytotoxicity assay; format: cell-based, Chinese hamster; conditions: 24 h, MTT
BEAS-2B cells = assay: MTT cytotoxicity assay; format: cell-based, human; conditions: 24 h
[4] = in vivo
Procedure: After blood samples were obtained, the hamsters were sacrificed with a lethal dose of sodium pentobarbital, followed by a cervical fracture. They were mounted on a dissecting board for the necropsy. A complete mid-laparotomy was performed to remove the lungs, spleen, heart, liver, and kidneys. An excisional biopsy was performed to recover the ALA lesions for morphometric analysis. The organs and ALA lesions were rinsed with 1× PBS, weighed, and adherent tissue was removed. […] Later, the inclusion protocol was performed to obtain histological sections (3 μm thick) with a rotatory microtome (RM2125-RTS, Leica; Wetzlar, Germany). Tissue slices were stained with hematoxylin-eosin (Merck; Rahway, NJ, USA), mounted on coverslips with Entellan^TM-New (Merck; Rahway, NJ, USA), and observed with optical microscopy (Eclipse 80i, Nikon; Tokio, Japan).

[5] = tested on: E. histolytica trophozoites (amoebic liver abscess); assay: Amoebic liver abscess (ALA) model, antiparasitic protocol; format: in vivo, Mesocricetus auratus
From the text: M. auratus was used as an animal model because the hamster is naturally susceptible to infection by E. histolytica and can develop amoebic colitis or extraintestinal complications such as an ALA [71]. In this context, the hamster can be used to search for new alternative therapeutic agents against amoebiasis. The hamsters were acquired from Charles River Laboratories Inc. (Wilmington, MA, USA) in 2017 by Centro de Investigación y de Estudios Avanzados del Instituto Politécnico Nacional ([…]-IPN). […] Male hamsters (sexually mature and homozygous) weighing 95 ± 5 g and ≈10 weeks old were selected for the experiments. They were maintained in aseptic conditions at 25 ± 1 °C, 50 ± 3% humidity, a 12 h photoperiod, and ad libitum access to a standard diet (LabDiet; Richmond, IN, USA) and water (Figure 5A). The hamsters were housed in polycarbonate boxes (five per box), with an American Iron and Steel Institute (AISI) lid and wood shavings as bedding, in a controlled room of the Animal Production and Experimentation Unit (UPEAL) from […]-IPN (Figure 5A). Additionally, the health state of the hamsters and their adaptation to the new laboratory conditions were evaluated for 15 days to decrease their stress and anxiety levels. This study was carried out according to the Official Mexican Regulations (NOM-062-ZOO-1999) and NC3Rs ARRIVE [60, 72]. The protocol was approved by the Institutional Animal Care and Use Committee (Reg. No. 0183-16). Finally, the hamsters were not subjected to any previous experimental procedure or any additional treatment before beginning the experimental procedures (see File S1, NC3Rs ARRIVE Guidelines Checklist). Compounds that are prohibited and/or not recommended for use in animals by the American Veterinary Medical Association (Guidelines for the Euthanasia of Animals) were not used.
These experiments were performed with three independent biological replicates. For each replicate, twenty-five hamsters were randomly distributed (simple type) into five experimental groups (five animals per group). The sample size was determined based on the Organization for Economic Cooperation and Development (OECD) recommendations that establish the minimum number of individuals required for the tests so as not to sacrifice animals unnecessarily. Laparotomy was performed in aseptic conditions by using depilation, iodine solution, as well as sterile field cloths. Subsequently, an intra-hepatic puncture was made to deliver 1.5 × 10^6 virulent E. histolytica trophozoites in 100 μL of 1× PBS into the left hepatic lobe for ALA induction (Figure 5A-3). The injection site was immediately covered by applying a gel foam pad to maintain hemostasis. The abdominal layers were sutured discontinuously by single vertical stitches using Vicryl synthetic absorbable suture with a triangular pointed half circle needle. Irregular edges or folds in the surgical wound were eliminated to avoid tissue devitalization or possible infections. The development of a hepatic ALA was monitored for 4 days (Figure 5A-4).
(Figure 5B). The compounds were administered by the i.p. route because the peritoneal cavity presents rapid fluid absorption into the bloodstream, and initial biotransformation by the gastrointestinal tract is avoided. […] The hamsters were evaluated 24 h post-treatment to detect any signs of discomfort/pain or toxicity. The humane endpoint criteria used in this study were >20% body weight loss overnight, cachexia, recumbence, lethargy, respiratory distress, inability to reach food and water, lack of grooming, and ulceration around the surgical site, among others. Additionally, the weight of hamsters was determined at the beginning and end of the experiment with an electronic bascule (CS200, Ohaus; Parsippany, NJ, USA), and the ALA volume was calculated based on imaging (Figure 5B-1). […]

[6] = Chinese hamster (CHO-K1) and human (BEAS-2B)

Cc1ncc([N+](=O)[O-])n1CCO [MTZ, metronidazole, reference compound]
IC50 [1]: 0.16 µg/mL (≈ 0.935 µM) | MPV ([2]; blood, ALA hamsters, i.p. 4 days): 8 ± 0.1 fL | TB/AL ratio ([2]; drug toxicity ratio): 0.38 ± 0.16 | neutrophil/lymphocyte ratio ([2]; hematic ratio): 1.15 ± 0.7 | Band neutrophils ([2]; in vivo): 0% | Basophils ([2]; in vivo): 0% | Eosinophils ([2]; in vivo): 0% | Immature forms ([2]; in vivo): 0% | Lymphocytes ([2]; in vivo): 50 ± 13% | Monocytes ([2]; in vivo): 0% | Segmented neutrophils ([2]; in vivo): 51 ± 13% | ALT (GPT) ([2]; in vivo, ip): 135 ± 23 U/L | AST (GOT) ([2]; in vivo, ip): 81 ± 24 U/L | Albumin ([2]; in vivo, ip): 1.9 ± 0.3 g/dL | Alkaline phosphatase ([2]; in vivo, ip): 230 ± 11 U/L | Cholesterol ([2]; in vivo, ip): 116 ± 9.1 mg/dL | Creatinine ([2]; in vivo, ip): 1.01 ± 0.2 mg/dL | Direct bilirubin ([2]; in vivo, ip): 0.5 ± 0.1 mg/dL | Erythrocytes ([2]; in vivo, ip): 3.7 ± 0.2 x10 6/mm3 | GGT ([2]; in vivo, ip): 5.5 ± 2.3 U/L | Glucose ([2]; in vivo, ip): 161 ± 21 mg/dL | Hematocrit ([2]; in vivo, ip): 35 ± 2.6% | Hemoglobin ([2]; in vivo, ip): 14. 7 ± 1.2 g/dL | Indirect bilirubin ([2]; in vivo, ip): 0.20 ± 0.1 mg/dL | Leukocytes ([2]; in vivo, ip): 7.7 ± 2.6 x100/mm3 | MCH ([2]; in vivo, ip): 40 ± 1.6 pg | MCHC ([2]; in vivo, ip): 43 ± 1.4 g/dL | MCV ([2]; in vivo, ip): 94 ± 2.2 fL | PCT ([2]; in vivo, ip): 0.4 ± 0.1% | PDW ([2]; in vivo, ip): 11 ± 0.4 fL | Platelets ([2]; in vivo, ip): 536 ± 148 x106/μL | RDW-CV ([2]; in vivo, ip): 25.8 ± 3.3 fL | RDW-SD ([2]; in vivo, ip): 111 ± 12 fL | Total bilirubin ([2]; in vivo, ip): 0.7 ± 0.3 mg/dL | Total protein ([2]; in vivo, ip): 5.3 ± 0.9 g/dL | Triglycerides ([2]; in vivo, ip): 280 ± 75 mg/dL | Urea ([2]; in vivo, ip): 41.2 ± 1.4 mg/dL | BUN/CR ratio ([2]; kidney damage ratio): 19.6 ± 3.8 | urea/CR ratio ([2]; kidney damage ratio): 42 ± 8.15 | AST/ALT ratio (De Ritis ratio) ([2]; liver injury ratio): < 1 | Survival rate (ALA hamsters, i.p. 4 days): 100% | Toxicity signs (in vivo, ip): None | apoptotic trophozoites [3]: 2% | decrease of size and granularity of the cell population [3]: 52% | necrotic trophozoites [3]: 62.2% | biological activity symbol on IC50 HM-1 ([3]; 48 h): ++ | biological activity symbol on IC50 CHO-K1 (CHO-K1 cells): - | IC50 (CHO-K1 cells; Cricetulus griseus, CHO-K1, read-out: IC50 CHO-K1): 500 µg/mL (≈ 2920 µM) | biological activity symbol on IC50 BEAS-2B (BEAS-2B cells): - | IC50 (BEAS-2B cells; Homo sapiens, BEAS-2B): 400 µg/mL (≈ 2340 µM) | Heart largest diameter [4]: 1.08 ± 0.04 cm | Heart weight [4]: 0.38 ± 0.1 g | Kidneys largest diameter [4]: 1.3 ± 0.08 cm | Kidneys weight [4]: 0.52 ± 0.0 g | Liver largest diameter [4]: 4 ± 0.15 cm | Liver weight [4]: 5.76 ± 1.4 g | Lungs largest diameter [4]: 2.5 ± 0.2 cm | Lungs weight [4]: 0.68 ± 0.05 g | Spleen largest diameter [4]: 3.3 ± 0.3 cm | Spleen weight [4]: 0.2 ± 0.05 g | Edges ([5]; ALA characteristics): Regular and well defined | Leukocyte infiltrate ([5]; ALA characteristics): − | Liquid ([5]; ALA characteristics): − | Morphology ([5]; ALA characteristics): Round | ALA Volume ([5]; MRI, i.p. 4 days): 528 ± 183.5 * mm^3 | MRI T1 signal of ALA ([5]; T1): Intermediate intensity | MRI T2 signal of ALA ([5]; T2): hypointense | ALA Weight ([5]; i.p. 4 days, KP 5, LL 10, MTZ 10 mg/kg/day): 0.33 ± 0.32 g | LD50 (Theoretical) [6]: 1026 mg/kg

Reference: PMC11477209, “Toxicological Evaluation of Kaempferol and Linearolactone as Treatments for Amoebic Liver Abscess Development in Mesocricetus auratus” (International Journal of Molecular Sciences, 2024)
